{"source": "patent US20050272712A1", "about": "“Compositions and methods for treatment of premenstrual dysphoric disorder” (Wyeth, priority 2004, published 2005)", "origin": "cited, not measured here", "conditions": "daily dose of either 20 mg or 60 mg; Steiner et al. 1995", "data": [{"smiles": "CNCCC(Oc1ccc(C(F)(F)F)cc1)c1ccccc1", "note": "(stereo not shown) [fluoxetine]", "values": [{"measurement": "reduction of symptoms versus placebo", "result": "superior to placebo in reducing symptoms"}]}]}
